For experiment [1], the system named is HCT116 FOPFlash. The experiment can be described thus: Control reporter assay, HCT116 FOP control vector (non-functional TCF elements), luciferase expression. The class given is cell-based. The note with it: HCT116 FOP control reporter cells, 36 hours incubation, dilution series 50 μM to 15 nM. The method, then:
In a parallel approach, HCT116 cells were cotransfected with the FOP control vector and pcDNA3. The FOP vector is identical to the TOP construct, but it contains instead of functional TCF elements a randomized, non-functional sequence. For this transfection a stable transfected cell line was generated as well.
(§1) In preparation of the assay, the two cell lines were plated 24 hours before at 10000 cells per well of a 384 micro titre plate (MTP) in 30 μL growth medium. Selective inhibitory activity for small molecules on the mutated Wnt pathway was determined after parallel incubation of both (TOP and FOP) HCT116 reporter cell lines with a compound dilution series from 50 μM to 15 nM in steps of 3.16-fold dilutions in CAFTY buffer (130 mM NaCl, 5 mM KCl, 20 mM HEPES, 1 mM MgCl2, 5 mM NaHCO3, pH 7.4) containing 2 mM Ca^2+ and 0.01% BSA. The compounds were thereby serially prediluted in 100% DMSO and thereafter in addition 50 fold into the CAFTY compound dilution buffer (described above). From this dilution 10 μL were added to the cells in 30 μL growth medium and incubated for 36 hours at 37° C. and 5% CO2. Thereafter luciferase assay buffer (1:1 mixture of luciferase substrate buffer (20 mM Tricine, 2.67 mM MgSO4, 0.1 mM EDTA, 4 mM DTT, 270 μM Coenzyme A, 470 μM Luciferin, 530 μM ATP, ph adjusted to pH 7.8 with a sufficient volume of 5M NaOH) and Triton buffer (30 mL Triton X-100, 115 mL glycerol, 308 mg Dithiothreitol, 4.45 g Na2HPO4.2H2O, 3.03 g TRIS HCl, ad 1 l H20, pH 7.8) was added as equal volume to the compound solution on the cells to determine luciferase expression as a measure of Wnt signaling activity in a luminometer.

Experiment [2] deals with constitutive active colorectal cancer cell (CRC) Wnt pathway, HCT116 TOPFlash. The experiment can be described thus: Cellular reporter assay, HCT116 Super TopFlash (constitutive active Wnt pathway), luciferase expression. The class given is cell-based. Conditions: HCT116 Super TopFlash reporter cells, 36 hours incubation, dilution series 50 μM to 15 nM. Here is the method: In order to discover and characterize small molecules which inhibit the constitutive active colorectal cancer cell (CRC) Wnt pathway, a cellular reporter assay was employed. The corresponding assay cell was generated by transfection of the colorectal cancer cell line HCT116 (ATCC, #CCL-247) with the Super TopFlash vector (Morin, Science 275, 1997, 1787-1790; Molenaar et al., Cell 86 (3), 1996, 391-399). The HCT116 cell line is cultivated at 37° C. and 5% CO2 in DMEM/F-12 (Life Technologies, #11320-074), supplemented with 2 mM glutamine, 20 mM HEPES, 1.4 mM pyruvate, 0.15% Na-bicarbonate and 10% foetal bovine serum (GIBCO, #10270), this cancer cell line is pathophysiological relevant since it carries a deletion of position S45 in the β-catenin gene, leading to constitutive active Wnt signaling. Stable transfectants were generated by cotransfection with pcDNA3 and selection of stable transfected cells with 1 mg/ml G418.
as §1

Where a name gives a salt, the structure may show the parent alone.

As for `CN1CCN(CC(=O)Nc2cc(C(=O)Nc3ccc(-c4cccnc4F)cn3)ccc2OC(F)(F)F)CC1` [Example 13, N-(2′-fluoro-3,3′-bipyridin-6-yl)-3-{[(4-methylpiperazin-1-yl)acetyl]amino}-4-(trifluoromethoxy)benzamide], the IC50 in experiment [1] (Homo sapiens, HCT-116, 36 h) is ≥ 50000 nM; in experiment [2] (Homo sapiens, HCT-116, 36 h), 41.5 nM.

Regarding `O=C(CN1CCOCC1)Nc1cc(C(=O)Nc2ccc(-c3cccnc3)cn2)ccc1OC(F)(F)F` [Example 14, N-(3,3′-bipyridin-6-yl)-3-[(morpholin-4-ylacetyl)amino]-4-(trifluoromethoxy)benzamide], the IC50 was ≥ 50000 nM in experiment [1] (Homo sapiens, HCT-116, 36 h) and 42.3 nM in experiment [2] (Homo sapiens, HCT-116, 36 h).

Regarding `Nc1ccc(-c2ccc(NC(=O)c3ccc(OC(F)(F)F)c(NC(=O)CN4CCOCC4)c3)nc2)cn1` [Example 15, N-(6′-amino-3,3′-bipyridin-6-yl)-3-[(morpholin-4-ylacetyl)amino]-4-(trifluoromethoxy)benzamide], the IC50 is ≥ 50000 nM in experiment [1] (Homo sapiens, HCT-116, 36 h) and 81.5 nM in experiment [2] (Homo sapiens, HCT-116, 36 h).

For the compound `O=C(CN1CCOCC1)Nc1cc(C(=O)Nc2ccc(-c3cccnc3F)cn2)ccc1OC(F)(F)F` [Example 16, N-(2′-fluoro-3,3′-bipyridin-6-yl)-3-[(morpholin-4-ylacetyl)amino]-4-(trifluoromethoxy)benzamide], the IC50 was ≥ 50000 nM in experiment [1] (Homo sapiens, HCT-116, 36 h) and 103 nM in experiment [2] (Homo sapiens, HCT-116, 36 h).

Take `Nc1ncc(-c2ccc(NC(=O)c3ccc(OC(F)(F)F)c(NC(=O)CN4CCOCC4)c3)nc2)cn1` [Example 17, N-[5-(2-aminopyrimidin-5-yl)pyridin-2-yl]-3-[(morpholin-4-ylacetyl)amino]-4-(trifluoromethoxy)benzamide]: the half-maximal inhibitory concentration (IC50) in experiment [1] (Homo sapiens, HCT-116, 36 h) is ≥ 50000 nM; in experiment [2] (Homo sapiens, HCT-116, 36 h) it was 120 nM.

With `CN1CCN(C2(C(=O)Nc3cc(C(=O)Nc4nnc(-c5ccccn5)s4)ccc3OC(F)(F)F)CC2)CC1` [Example 18, 3-({[1-(4-methylpiperazin-1-yl)cyclopropyl]carbonyl}amino)-N-[5-(pyridin-2-yl)-1,3,4-thiadiazol-2-yl]-4-(trifluoromethoxy)benzamide hydrochloride], the IC50 turned out to be 10300 nM in experiment [1] (Homo sapiens, HCT-116, 36 h) and 106 nM in experiment [2] (Homo sapiens, HCT-116, 36 h).

On to `CN1CCN(C2(C(=O)Nc3cc(C(=O)Nc4nnc(-c5cccnc5)s4)ccc3OC(F)(F)F)CC2)CC1` [Example 19, 3-({[1-(4-methylpiperazin-1-yl)cyclopropyl]carbonyl}amino)-N-[5-(pyridin-3-yl)-1,3,4-thiadiazol-2-yl]-4-(trifluoromethoxy)benzamide hydrochloride], for which the IC50 in experiment [1] (Homo sapiens, HCT-116, 36 h) is ≥ 50000 nM; in experiment [2] (Homo sapiens, HCT-116, 36 h), 105 nM.

As to `CN1CCN(CC(=O)Nc2cc(C(=O)Nc3nnc(-c4cccnc4)s3)ccc2OC(F)(F)F)CC1` [Example 20, 3-{[(4-methylpiperazin-1-yl)acetyl]amino}-N-[5-(pyridin-3-yl)-1,3,4-thiadiazol-2-yl]-4-(trifluoromethoxy)benzamide hydrochloride], the IC50 in experiment [1] (Homo sapiens, HCT-116, 36 h) is 40000 nM; in experiment [2] (Homo sapiens, HCT-116, 36 h) it was 167 nM.

With `CN1CCN(CC(=O)Nc2cc(C(=O)Nc3nnc(-c4cccnc4)s3)ccc2OC(F)(F)F)CC1` [Example 21, 3-{[(4-methylpiperazin-1-yl)acetyl]amino}-N-[5-(pyridin-3-yl)-1,3,4-thiadiazol-2-yl]-4-(trifluoromethoxy)benzamide], the IC50 was ≥ 50000 nM in experiment [1] and 315 nM in experiment [2].

Take `CC(C(=O)Nc1cc(C(=O)Nc2ccc(-c3ccncc3)nc2)ccc1OC(F)(F)F)N1CCOCC1` (stereo not drawn) [Example 22, N-(2,4′-bipyridin-5-yl)-3-{[2-(morpholin-4-yl)propanoyl]amino}-4-(trifluoromethoxy)benzamide]: the half-inhibitory concentration (IC50) in experiment [1] (Homo sapiens, HCT-116, 36 h) is ≥ 50000 nM; in experiment [2] (Homo sapiens, HCT-116, 36 h), 285 nM.

For the compound `CC(C(=O)Nc1cc(C(=O)Nc2ccc(-c3ccc(F)nc3)nc2)ccc1OC(F)(F)F)N1CCOCC1` (stereo not drawn) [Example 23, N-(6′-fluoro-2,3′-bipyridin-5-yl)-3-{[2-(morpholin-4-yl)propanoyl]amino}-4-(trifluoromethoxy)benzamide], the concentration for half-maximal inhibition (IC50) in experiment [1] (Homo sapiens, HCT-116, 36 h) is ≥ 50000 nM; in experiment [2] (Homo sapiens, HCT-116, 36 h), 53.5 nM.

In the case of `COc1ccc(NC(=O)c2ccc(-c3cccs3)nc2)cc1NC(=O)CN1CCOCC1` [Example 24, N-{4-methoxy-3-[(morpholin-4-ylacetyl)amino]phenyl}-6-(thiophen-2-yl)pyridine-3-carboxamide], the IC50 was ≥ 50000 nM in experiment [1] (Homo sapiens, HCT-116, 36 h) and 4000 nM in experiment [2] (Homo sapiens, HCT-116, 36 h).

As to `COc1ccc(NC(=O)c2ccc(-c3ccncc3)s2)cc1NC(=O)CN1CCOCC1` [Example 25, N-{4-methoxy-3-[(morpholin-4-ylacetyl)amino]phenyl}-5-(pyridin-4-yl)thiophene-2-carboxamide], the IC50 is ≥ 50000 nM in experiment [1] (Homo sapiens, HCT-116, 36 h) and 4400 nM in experiment [2] (Homo sapiens, HCT-116, 36 h).

On to `CN1CCN(C2(C(=O)Nc3cc(C(=O)Nc4nnc(-c5cccnc5)s4)ccc3Cl)CC2)CC1` [Example 26, 4-chloro-3-({[1-(4-methylpiperazin-1-yl)cyclopropyl]carbonyl}amino)-N-[5-(pyridin-3-yl)-1,3,4-thiadiazol-2-yl]benzamide], for which the IC50 in experiment [1] (Homo sapiens, HCT-116, 36 h) was ≥ 50000 nM; in experiment [2] (Homo sapiens, HCT-116, 36 h), 500 nM.

For `Cc1ncccc1-c1nnc(NC(=O)c2ccc(OC(F)(F)F)c(NC(=O)CN3CCN(C)CC3)c2)s1` [Example 27, 3-{[(4-methylpiperazin-1-yl)acetyl]amino}-N-[5-(2-methylpyridin-3-yl)-1,3,4-thiadiazol-2-yl]-4-(trifluoromethoxy)benzamide], the IC50 in experiment [1] (Homo sapiens, HCT-116, 36 h) is ≥ 50000 nM; in experiment [2] (Homo sapiens, HCT-116, 36 h) it was 2700 nM.

For `Cc1ncccc1-c1nnc(NC(=O)c2ccc(OC(F)(F)F)c(NC(=O)CN3CCOCC3)c2)s1` [Example 28, N-[5-(2-methylpyridin-3-yl)-1,3,4-thiadiazol-2-yl]-3-[(morpholin-4-ylacetyl)amino]-4-(trifluoromethoxy)benzamide], the IC50 in experiment [1] (Homo sapiens, HCT-116, 36 h) was ≥ 50000 nM; in experiment [2] (Homo sapiens, HCT-116, 36 h), 1140 nM.

Consider `CN1CCN(C2(C(=O)Nc3cc(C(=O)Nc4nnc(-c5cncnc5)s4)ccc3OC(F)(F)F)CC2)CC1` [Example 29, 3-({[1-(4-methylpiperazin-1-yl)cyclopropyl]carbonyl}amino)-N-[5-(pyrimidin-5-yl)-1,3,4-thiadiazol-2-yl]-4-(trifluoromethoxy)benzamide], for which the IC50 in experiment [1] (Homo sapiens, HCT-116, 36 h) is ≥ 50000 nM; in experiment [2] (Homo sapiens, HCT-116, 36 h), 206 nM.

Regarding `O=C(Nc1nnc(-c2cncnc2)s1)c1ccc(OC(F)(F)F)c(NC(=O)C2(N3CCOCC3)CC2)c1` [Example 30, 3-({[1-(morpholin-4-yl)cyclopropyl]carbonyl}amino)-N-[5-(pyrimidin-5-yl)-1,3,4-thiadiazol-2-yl]-4-(trifluoromethoxy)benzamide], the IC50 in experiment [1] (Homo sapiens, HCT-116, 36 h) was ≥ 50000 nM; in experiment [2] (Homo sapiens, HCT-116, 36 h), 535 nM.

For the compound `CN1CCN(CC(=O)Nc2cc(C(=O)Nc3nnc(-c4cnc(N)nc4)s3)ccc2OC(F)(F)F)CC1` [Example 31, N-[5-(2-aminopyrimidin-5-yl)-1,3,4-thiadiazol-2-yl]-3-{[(4-methylpiperazin-1-yl)acetyl]amino}-4-(trifluoromethoxy)benzamide], the IC50 in experiment [1] (Homo sapiens, HCT-116, 36 h) was ≥ 50000 nM; in experiment [2] (Homo sapiens, HCT-116, 36 h), 973 nM.

`CN1CCN(C2(C(=O)Nc3cc(C(=O)Nc4nnc(-c5cnc(N)nc5)s4)ccc3OC(F)(F)F)CC2)CC1` [Example 32, N-[5-(2-aminopyrimidin-5-yl)-1,3,4-thiadiazol-2-yl]-3-({[1-(4-methylpiperazin-1-yl)cyclopropyl]carbonyl}amino)-4-(trifluoromethoxy)benzamide]: the IC50 in experiment [1] (Homo sapiens, HCT-116, 36 h) is ≥ 50000 nM; in experiment [2] (Homo sapiens, HCT-116, 36 h) it was 128 nM.

Turning to `Nc1ncc(-c2nnc(NC(=O)c3ccc(OC(F)(F)F)c(NC(=O)C4(N5CCOCC5)CC4)c3)s2)cn1` [Example 33, N-[5-(2-aminopyrimidin-5-yl)-1,3,4-thiadiazol-2-yl]-3-({[1-(morpholin-4-yl)cyclopropyl]carbonyl}amino)-4-(trifluoromethoxy)benzamide], the IC50 in experiment [1] (Homo sapiens, HCT-116, 36 h) was ≥ 50000 nM; in experiment [2] (Homo sapiens, HCT-116, 36 h) it was 197 nM.

The values are drawn from patent US20170107212A1, “NOVEL COMPOUNDS” (Bayer Pharma Aktiengesellschaft, priority 2014, published 2017).
